12 molecules from ChEMBL document CHEMBL1201862, “PubChem BioAssay data set” (2004) can be followed below.

Some test systems named below: CAKI-1; DLD-1; HCC 2998; HCT-116; HCT-15; HOP-92; NCI-H226; NCI-H522; OVCAR-4; OVCAR-8; SN12C; SNB-19; U-251; UACC-257; UACC-62; UO-31; OVCAR-5; SF-539.
Assay in all cases: inhibition of tumour cell growth, NCI panel, 48 h

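Tested at 5 concentrations; 48 h exposure; 96-well plates; endpoints linearly interpolated, else capped at highest concentration. At the GI50, growth is halved.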 The source made the active and inactive calls. Rule as the data show it: active = GI50 up to about 1.1 µM and inactive = higher.

Turning to `O=C1NC(=O)/C(=N\c2cccc3c(=O)[nH][nH]c(=O)c23)C(c2nc3ccccc3s2)C1=O` (stereo not given), the GI50 in the assay on CAKI-1 is > 100 µM (inactive); in the assay on DLD-1, > 100 µM (inactive); in the assay on HCC 2998 it was 89.7 µM (inactive); with HCT-116, > 100 µM (inactive); in the assay on HCT-15 it was greater than 100 µM; in the assay on HOP-92, > 100 µM (inactive). Also, the GI50 in the assay with NCI-H226, in the assay on NCI-H522, with OVCAR-4, in the assay with OVCAR-8, in the assay with SN12C and in the assay on SNB-19 was > 100 µM (inactive) each time. Also, the GI50 in the assay with U-251, with UACC-257, in the assay on UACC-62 and with UO-31 was > 100 µM (inactive) each time.
As to `COC(=N)/C(=C1\OC(=N)C(c2ccc(Cl)cc2)=C1O)c1ccc(Cl)cc1`, the GI50 in the assay on CAKI-1 is > 100 µM (inactive); in the assay with DLD-1, > 100 µM (inactive); in the assay with HCC 2998, > 100 µM (inactive); with HCT-116 it was > 100 µM (inactive); in the assay with HCT-15, greater than 100 µM; in the assay on HOP-92, > 100 µM (inactive). The GI50 in the assay on NCI-H226, with NCI-H522, with OVCAR-4, with OVCAR-5, in the assay on OVCAR-8 and in the assay with SF-539 was > 100 µM (inactive) throughout. The GI50 in the assay on SN12C, in the assay with SNB-19, in the assay on U-251, with UACC-257, in the assay on UACC-62 and in the assay with UO-31 was > 100 µM (inactive) throughout.
Regarding `CC1=C(C(=O)CC(=O)C(=O)Nc2cccc(C)c2C)Sc2ccccc2N1`, the GI50 is > 100 µM (inactive) in the assay on CAKI-1; > 100 µM (inactive) with DLD-1; > 100 µM (inactive) in the assay with HCC 2998; > 100 µM (inactive) with HCT-116; greater than 100 µM in the assay on HCT-15; > 100 µM (inactive) with HOP-92. Further, the GI50 in the assay with NCI-H226, with NCI-H522, with OVCAR-4, in the assay with OVCAR-5, in the assay on OVCAR-8 and with SF-539 was > 100 µM (inactive) in each case. The GI50 in the assay with SN12C, in the assay with SNB-19, in the assay with U-251, with UACC-257, in the assay on UACC-62 and in the assay with UO-31 was > 100 µM (inactive) in each case.
Consider `O=C(CC(=O)N1N=C(n2ccc3ccccc32)CC1c1ccccc1)Nc1cccc(Cl)c1` (stereo not given), for which the GI50 with DLD-1 was > 100 µM (inactive); in the assay on HCC 2998, > 100 µM (inactive); in the assay with HCT-116, > 100 µM (inactive); with HCT-15, greater than 100 µM; in the assay on HOP-92, 16 µM (inactive); in the assay on NCI-H522, > 100 µM (inactive). The GI50 in the assay on OVCAR-4, in the assay on OVCAR-5, with OVCAR-8, in the assay with SF-539, with SN12C and in the assay with SNB-19 was > 100 µM (inactive) throughout. For the same molecule, the GI50 in the assay on U-251, in the assay with UACC-257, in the assay with UACC-62 and with UO-31 was > 100 µM (inactive) in each case.
With `COC(=O)C1[C@H](c2cc(OC)c(OC)c(OC)c2)OC(=O)C1(C(=O)OC)C(=O)c1ccc2c(c1)OCO2` (stereo not given in full), the GI50 was > 100 µM (inactive) in the assay with CAKI-1; > 100 µM (inactive) in the assay on DLD-1; > 100 µM (inactive) with HCC 2998; > 100 µM (inactive) in the assay with HCT-116; greater than 100 µM in the assay with HCT-15; > 100 µM (inactive) in the assay on HOP-92. Further, the GI50 in the assay with NCI-H226, with NCI-H522, with OVCAR-4, in the assay with OVCAR-5, in the assay with OVCAR-8 and with SF-539 was > 100 µM (inactive) throughout. Besides, the GI50 in the assay with SN12C, with SNB-19, in the assay on U-251, with UACC-257, in the assay with UACC-62 and in the assay with UO-31 was > 100 µM (inactive) in each case.
As for `COc1ccccc1N1C(=O)C2c3[nH]c4ccccc4c3C3CCC(C(C)(C)C)CC3C2C1=O` (stereo not given), the GI50 is > 100 µM (inactive) in the assay on DLD-1; > 100 µM (inactive) in the assay on HCC 2998; > 100 µM (inactive) with HCT-116; greater than 100 µM in the assay with HCT-15; > 100 µM (inactive) with HOP-92; > 100 µM (inactive) in the assay on NCI-H226. Besides, the GI50 with NCI-H522, in the assay on OVCAR-4, in the assay on OVCAR-8, in the assay with SF-539, in the assay on SN12C and in the assay on SNB-19 was > 100 µM (inactive) throughout. Also, the GI50 in the assay with U-251, in the assay on UACC-257, in the assay with UACC-62 and in the assay on UO-31 was > 100 µM (inactive) in each case.
On to `COc1ccc(C2NC(c3ccc(OC)cc3)C(C)C(=O)C2C)cc1` (stereo not given), for which the GI50 in the assay on DLD-1 is > 100 µM (inactive); in the assay with HCC 2998 it was > 100 µM (inactive); in the assay with HCT-116 it was 91.8 µM (inactive); with HCT-15, greater than 100 µM; in the assay on HOP-92, > 100 µM (inactive); in the assay with NCI-H522 it was > 100 µM (inactive). The GI50 in the assay with OVCAR-4 is > 100 µM (inactive); in the assay with OVCAR-5, 23.4 µM (inactive); in the assay with OVCAR-8, > 100 µM (inactive); with SF-539, > 100 µM (inactive); in the assay with SN12C it was > 100 µM (inactive); in the assay on SNB-19, > 100 µM (inactive). In addition, the GI50 in the assay with U-251 is > 100 µM (inactive); with UACC-257, > 100 µM (inactive); in the assay with UACC-62, > 100 µM (inactive); with UO-31, 60 µM (inactive).
With `Cc1cccc(N2C(=O)C(Cl)=C(Cl)C2=O)c1`, the GI50 is > 42.3 µM (inactive) in the assay with CAKI-1; > 43 µM (inactive) in the assay on DLD-1; > 100 µM (inactive) in the assay with HCC 2998; 38.6 µM (inactive) with HCT-116; greater than 41.7 µM in the assay on HCT-15; > 53.8 µM (inactive) with HOP-92. For the same molecule, the GI50 with NCI-H226 is > 100 µM (inactive); in the assay on NCI-H522 it was 8.91 µM (inactive); in the assay on OVCAR-4 it was > 46.3 µM (inactive); in the assay on OVCAR-5 it was > 100 µM (inactive); in the assay with OVCAR-8, > 100 µM (inactive); in the assay with SF-539, > 100 µM (inactive). Further, the GI50 is > 80.5 µM (inactive) in the assay with SN12C; > 100 µM (inactive) with SNB-19; > 100 µM (inactive) with U-251; > 100 µM (inactive) in the assay with UACC-257; > 64.7 µM (inactive) in the assay with UACC-62; > 100 µM (inactive) in the assay on UO-31.
As to `CCCCCCCCCCCCCS(=O)(=O)NCC(N)=O`, the GI50 in the assay with DLD-1 was > 100 µM (inactive); in the assay with HCC 2998, > 100 µM (inactive); in the assay on HCT-116, > 100 µM (inactive); with HCT-15, greater than 100 µM; with HOP-92, > 100 µM (inactive); in the assay with NCI-H226 it was > 100 µM (inactive). Also, the GI50 in the assay on NCI-H522, in the assay with OVCAR-4, in the assay on OVCAR-5, in the assay on OVCAR-8, in the assay with SF-539 and in the assay with SN12C was > 100 µM (inactive) each time. In addition, the GI50 with SNB-19, with U-251, in the assay with UACC-257, in the assay with UACC-62 and in the assay on UO-31 was > 100 µM (inactive) throughout.
On to `C=C(C)C1CC=C(C)CC1` (stereo not given), for which the GI50 in the assay with CAKI-1 was 935 µM (inactive); in the assay on DLD-1 it was 885 µM (inactive); in the assay on HCC 2998, 973 µM (inactive); with HCT-116 it was 923 µM (inactive); with HCT-15 it was 891 µM; in the assay on HOP-92 it was 841 µM (inactive). The GI50 was 830 µM (inactive) in the assay with NCI-H226; 989 µM (inactive) in the assay on NCI-H522; 964 µM (inactive) in the assay with OVCAR-4; 968 µM (inactive) with OVCAR-5; 1040 µM (inactive) with OVCAR-8; 899 µM (inactive) with SF-539. In addition, the GI50 in the assay with SN12C is 893 µM (inactive); with SNB-19, 906 µM (inactive); in the assay on U-251 it was 787 µM (inactive); with UACC-257 it was 927 µM (inactive); with UACC-62, 838 µM (inactive); with UO-31, 925 µM (inactive).
Consider `O=C1CC(C2(O)C(=O)Nc3ccc([N+](=O)[O-])cc32)c2ccccc21` (stereo not given), for which the GI50 with DLD-1 was 40 µM (inactive); with HCC 2998 it was 20.6 µM (inactive); in the assay on HCT-116, 31.3 µM (inactive); in the assay on HCT-15, 18.2 µM; with HOP-92, 35 µM (inactive); in the assay on NCI-H226, 14.7 µM (inactive). For the same molecule, the GI50 was 11.2 µM (inactive) in the assay with NCI-H522; 20 µM (inactive) in the assay on OVCAR-4; > 100 µM (inactive) in the assay with OVCAR-5; 66.4 µM (inactive) in the assay on OVCAR-8; 32.5 µM (inactive) in the assay on SF-539; 31.8 µM (inactive) in the assay with SN12C. The GI50 was > 100 µM (inactive) with SNB-19; 17.7 µM (inactive) with U-251; 47.1 µM (inactive) with UACC-257; 19.5 µM (inactive) in the assay with UACC-62; > 100 µM (inactive) with UO-31.
Turning to `CC(=O)/C(=C\c1ccccc1)C(=O)Nc1ccccc1`, the GI50 in the assay with CAKI-1, with DLD-1, in the assay on HCC 2998, with HCT-116, in the assay with HOP-92 and in the assay on NCI-H226 was > 100 µM (inactive) each time. Moreover, the GI50 with NCI-H522, in the assay with OVCAR-4, with OVCAR-5, in the assay with OVCAR-8, in the assay with SF-539 and with SN12C was > 100 µM (inactive) each time. Also, the GI50 in the assay on SNB-19, with U-251, in the assay with UACC-257, in the assay with UACC-62 and with UO-31 was > 100 µM (inactive) throughout.
